Data on 10 compounds can be found in patent US7713701B2, “DNA-binding polymers” (California Institute of Technology, priority 2004, dated 2010).

Several values for one entry are separate records, joined by “and”; a condition that tells them apart may be missing. Identical values can stand only once. A value given as a limit tells only on which side of the number the result lay.

The subject of assay [1] is G-C base pair at N-terminal position, binding site 5′-A T G T A C A-3′, 285 bp PCR product from plasmid pCW15. The experiment in a line: Quantitative DNase I footprint titration, G-C site. Conditions: for Equilibrium association constant, G-C: DNase I footprint titration, 22° C., pH 7.0, 10 mM Tris-HCl, 10 mM KCl, 10 mM MgCl2, 5 mM CaCl2, mean of at least three, SD in parentheses. The method, then:
(§1) Oligonucleotide primers SF1 (5′-AATTC-GAGCTCGGTACCGGGG-3′; SEQ ID NO:1) and SF2(5′-[…]-3′; SEQ ID NO:2) were synthesized by the Biopolymer Synthesis Center at the California Institute of Technology. Products from PCR amplification of the pCW15 using 5′-[γ-^32P]-labeled SF1 and SF2 were purified on a 7% non-denaturing polyacrylamide gel. Glycogen (20 mg/mL), dNTPs (PCR nucleotide mix), and all enzymes, unless otherwise stated, were purchased from Boehringer-Mannheim. Deoxyadenosine [γ-^32P]triphosphate was obtained from ICN. Calf thymus DNA (sonicated, deproteinized) and DNase I (7500 units/mL. FPLC pure) were from Amersham Pharmacia. AmpliTaq DNA polymerase was obtained from Perkin-Elmer and was used with provided buffers. Tris.HCl, DTT, RNase-free water, and 0.5 M EDTA were from United States Biochemical. Calcium chloride, potassium chloride, and magnesium chloride were purchased from Fluka. Tris-borate-EDTA was from GIBCO and bromophenol blue was from Acros. All reagents were used without further purification.
(§2) The DNA sequence specificity of novel thiophene-2-carboxamide-containing polymers (DNA-binding polymers 1-8) was evaluated by comparing their affinities for each Watson-Crick base pair to those of N-methylimidazole (Im) and N-methylpyrrole (Py) (DNA-binding polymers 9-10). […] Affinities were determined using DNase I footprinting, as performed by standard protocols (e.g., Trauger et al., Methods Enzymol. 2001, 340, 450).
(§3) Briefly, Quantitative DNase I footprinting titration experiments (10 mM Tris-HCl. 10 mM KCl, 10 mM MgC2, 5 mM CaCl2, pH 7.0, 22° C.) were performed on 5′-^32P end-labeled, 285 bp PCR product from plasmid construct pCW15 (as described previously in Ellervik et al., J. Am. Chem. Soc. 2000, 122, 9354). This plasmid contains four binding sites that vary at a single N-terminal position, 5′-A T N T A C A-3′, where N=T, A, G, C. The divergent behavior of control DNA-binding polymers 9 and 10 illustrates the need for development of new N-terminal residues.

Assay [2] relates to A-T base pair at N-terminal position of binding site 5′-A T N T A C A-3′ (N=A), 285 bp PCR product from plasmid pCW15. The assay is described as follows: Quantitative DNase I footprint titration, A-T site. The conditions noted are these: 22° C., pH 7.0, 10 mM Tris-HCl, 10 mM KCl, 10 mM MgCl2, 5 mM CaCl2, mean of at least three, SD in parentheses. The method, then:
as §1, §2, §3

Assay [3] concerns C-G base pair at N-terminal position of binding site 5′-A T N T A C A-3′ (N=C), 285 bp PCR product from plasmid pCW15. The assay is described as follows: Quantitative DNase I footprint titration, C-G site. Conditions: 22° C., pH 7.0, 10 mM Tris-HCl, 10 mM KCl, 10 mM MgCl2, 5 mM CaCl2, mean of at least three, SD in parentheses. The method, then: as §1, §2, §3
For assay [4], the system named is T-A base pair at N-terminal position of binding site 5′-A T N T A C A-3′ (N=T), 285 bp PCR product from plasmid pCW15. The experiment in a line: Quantitative DNase I footprint titration, T-A site. The conditions noted are these: for Equilibrium association constant, T-A: DNase I footprint titration, 22° C., pH 7.0, 10 mM Tris-HCl, 10 mM KCl, 10 mM MgCl2, 5 mM CaCl2, mean of at least three, SD in parentheses; for selectivity for T-A relative to A-T / preference / specificity for T-A relative to G-C: ratio of association constants. The method, then: as §1, §2, §3

The test system of assay [5] is four binding sites 5′-A T N T A C A-3′, N=T, A, G, C, of pCW15 PCR product. The assay is described as follows: DNase I footprinting, sequence specificity across the four sites. The conditions noted are these: comparison of affinities for the four Watson-Crick base pairs. The protocol: as §1, §2, §3

`CN(C)CCCNC(=O)CCNC(=O)c1cc(NC(=O)c2cc(NC(=O)c3cc(NC(=O)c4nc(NC(=O)CCCNC(=O)c5cc(NC(=O)c6cc(NC(=O)c7cc(NC(=O)c8nccn8C)cn7C)cn6C)cn5C)cn4C)cn3C)cn2C)cn1C` [compound 9]: the “preference for G-C relative to T-A, A-T, and C-G base pairs” value in assay [1] (ratio of association constants) is on record as over 15 fold. For the same compound, in assay [2], the “Equilibrium association constant, A-T” value is on record as 2.8 (0.2) × 10^9 M^−1. Further, the “Equilibrium association constant, C-G” value in assay [3] is recorded as 3.2 (0.4) × 10^9 M^−1. Moreover, the “Equilibrium association constant, T-A” value in assay [4] is reported as 3.8 (0.3) × 10^9 M^−1.

As to `CN(C)CCCNC(=O)CCNC(=O)c1cc(NC(=O)c2cc(NC(=O)c3cc(NC(=O)c4nc(NC(=O)CCCNC(=O)c5cc(NC(=O)c6cc(NC(=O)c7cc(NC(=O)c8sccc8N)cn7C)cn6C)cn5C)cn4C)cn3C)cn2C)cn1C` [compound 3], the “sequence specificity (in words)” value in assay [5] was “distinguish T-A from G-C but again do not distinguish T-A from A-T”. Moreover, in assay [1], the “Equilibrium association constant, G-C” value is reported as 7.8 (0.9) × 10^8 M^−1. Further, the “Equilibrium association constant, A-T” value in assay [2] is on record as 4.6 (0.6) × 10^9 M^−1. Besides, in assay [3], the “Equilibrium association constant, C-G” value is on record as 2.2 (0.3) × 10^8 M^−1. Further, in assay [4], the “Equilibrium association constant, T-A” value is listed as 6.3 (1.0) × 10^9 M^−1.

Regarding `CN(C)CCCNC(=O)CCNC(=O)c1cc(NC(=O)c2cc(NC(=O)c3cc(NC(=O)c4nc(NC(=O)CCCNC(=O)c5cc(NC(=O)c6cc(NC(=O)c7cc(NC(=O)c8sccc8Cl)cn7C)cn6C)cn5C)cn4C)cn3C)cn2C)cn1C` [compound 8], the “Equilibrium association constant, G-C” value in assay [1] is reported as 3.1 (0.6) × 10^8 M^−1. In assay [2], the “Equilibrium association constant, A-T” value is on record as 3.7 (0.2) × 10^9 M^−1. Also, the “Equilibrium association constant, C-G” value in assay [3] is 2.1 (1.1)× 10^8 M^−1. In assay [4], the “Equilibrium association constant, T-A” value is listed as 1.3 (0.2) × 10^10 M^−1 and the “selectivity for T-A relative to A-T” value is listed as 3 fold.

For the compound `CN(C)CCCNC(=O)CCNC(=O)c1cc(NC(=O)c2cc(NC(=O)c3cc(NC(=O)c4nc(NC(=O)CCCNC(=O)c5cc(NC(=O)c6cc(NC(=O)c7cc(NC(=O)c8cccn8C)cn7C)cn6C)cn5C)cn4C)cn3C)cn2C)cn1C` [compound 10], in assay [5], the “sequence specificity (in words)” value was “little sequence specificity”. The “Equilibrium association constant, G-C” value in assay [1] is recorded as 1.1 (0.1) × 10^9 M^−1. The “Equilibrium association constant, A-T” value in assay [2] was 3.1 (0.3) × 10^9 M^−1. Also, the “Equilibrium association constant, C-G” value in assay [3] is on record as 2.6 (0.3) × 10^8 M^−1. For the same compound, in assay [4], the “Equilibrium association constant, T-A” value was 5.1 (0.6) × 10^9 M^−1.

On to `COc1ccsc1C(=O)Nc1cc(C(=O)Nc2cc(C(=O)Nc3cc(C(=O)NCCCC(=O)Nc4cn(C)c(C(=O)Nc5cc(C(=O)Nc6cc(C(=O)Nc7cc(C(=O)NCCC(=O)NCCCN(C)C)n(C)c7)n(C)c6)n(C)c5)n4)n(C)c3)n(C)c2)n(C)c1` [compound 6], for which, in assay [1], the “Equilibrium association constant, G-C” value is listed as “≦1.0 × 10^7 M^−1”. Further, in assay [2], the “Equilibrium association constant, A-T” value was 3.2 (0.6) × 10^8 M^−1. In assay [3], the “Equilibrium association constant, C-G” value is reported as “≦1.0 × 10^7 M^−1”. Also, in assay [4], the “Equilibrium association constant, T-A” value was 2×10^9 M^−1 and 2.0 (0.4) × 10^9 M^−1; the “preference / specificity for T-A relative to G-C” value is recorded as over 200 fold; the “selectivity for T-A relative to A-T” value is on record as 6 fold.

Turning to `CN(C)CCCNC(=O)CCNC(=O)c1cc(NC(=O)c2cc(NC(=O)c3cc(NC(=O)c4nc(NC(=O)CCCNC(=O)c5cc(NC(=O)c6cc(NC(=O)c7cc(NC(=O)c8cccs8)cn7C)cn6C)cn5C)cn4C)cn3C)cn2C)cn1C` [compound 1], the “sequence specificity (in words)” value in assay [5] is listed as “little sequence specificity”. For the same compound, the “Equilibrium association constant, G-C” value in assay [1] is 4.3 (0.4) × 10^8 M^−1. Also, the “Equilibrium association constant, A-T” value in assay [2] is reported as 4.7 (0.7) × 10^9 M^−1. The “Equilibrium association constant, C-G” value in assay [3] was 2.2 (0.3) × 10^9 M^−1. For the same compound, the “Equilibrium association constant, T-A” value in assay [4] is 6.0 (0.7) × 10^9 M^−1.

For the compound `Cc1ccsc1C(=O)Nc1cc(C(=O)Nc2cc(C(=O)Nc3cc(C(=O)NCCCC(=O)Nc4cn(C)c(C(=O)Nc5cc(C(=O)Nc6cc(C(=O)Nc7cc(C(=O)NCCC(=O)NCCCN(C)C)n(C)c7)n(C)c6)n(C)c5)n4)n(C)c3)n(C)c2)n(C)c1` [compound 2], in assay [1], the “Equilibrium association constant, G-C” value was 1.0 (0.4) × 10^7 M^−1. Besides, in assay [2], the “Equilibrium association constant, A-T” value is 1.4 (0.2) × 10^9 M^−1. Further, the “Equilibrium association constant, C-G” value in assay [3] is given as 1.0 (0.3) × 10^7 M^−1. In addition, in assay [4], the “Equilibrium association constant, T-A” value is recorded as 2.3 (0.4) × 10^9 M^−1 and the “preference / specificity for T-A relative to G-C” value is recorded as 140 fold.

For the compound `CN(C)CCCNC(=O)CCNC(=O)c1cc(NC(=O)c2cc(NC(=O)c3cc(NC(=O)c4nc(NC(=O)CCCNC(=O)c5cc(NC(=O)c6cc(NC(=O)c7cc(NC(=O)c8sccc8O)cn7C)cn6C)cn5C)cn4C)cn3C)cn2C)cn1C` [compound 5], in assay [5], the “sequence specificity (in words)” value was “distinguish T-A from G-C but again do not distinguish T-A from A-T”. In addition, the “Equilibrium association constant, G-C” value in assay [1] is listed as 2.1 (0.3) × 10^8 M^−1. Besides, in assay [2], the “Equilibrium association constant, A-T” value is 4.5 (0.6) × 10^9 M^−1. For the same compound, the “Equilibrium association constant, C-G” value in assay [3] is 8.4 (0.1) × 10^7 M^−1. Further, the “Equilibrium association constant, T-A” value in assay [4] is given as 6.2 (0.6) × 10^9 M^−1.

`CC(=O)Nc1ccsc1C(=O)Nc1cc(C(=O)Nc2cc(C(=O)Nc3cc(C(=O)NCCCC(=O)Nc4cn(C)c(C(=O)Nc5cc(C(=O)Nc6cc(C(=O)Nc7cc(C(=O)NCCC(=O)NCCCN(C)C)n(C)c7)n(C)c6)n(C)c5)n4)n(C)c3)n(C)c2)n(C)c1` [compound 4]: the “sequence specificity (in words)” value in assay [5] is reported as “distinguish T-A from G-C but again do not distinguish T-A from A-T”. In assay [1], the “Equilibrium association constant, G-C” value was 6.6 (0.4) × 10^8 M^−1. Moreover, the “Equilibrium association constant, A-T” value in assay [2] is recorded as 2.9 (0.1) × 10^9 M^−1. In addition, the “Equilibrium association constant, C-G” value in assay [3] is reported as 6.0 (0.2) × 10^8 M^−1. In addition, the “Equilibrium association constant, T-A” value in assay [4] was 5.9 (0.3) × 10^9 M^−1.

Take `CN(C)CCCNC(=O)CCNC(=O)c1cc(NC(=O)c2cc(NC(=O)c3cc(NC(=O)c4nc(NC(=O)CCCNC(=O)c5cc(NC(=O)c6cc(NC(=O)c7cc(NC(=O)c8sccc8F)cn7C)cn6C)cn5C)cn4C)cn3C)cn2C)cn1C` [compound 7]: the “Equilibrium association constant, G-C” value in assay [1] is given as 3.7 (0.4) × 10^8 M^−1. Also, the “Equilibrium association constant, A-T” value in assay [2] was 3.9 (0.3) × 10^9 M^−1. In addition, the “Equilibrium association constant, C-G” value in assay [3] was 2.9 (0.3) × 10^8 M^−1. In addition, in assay [4], the “Equilibrium association constant, T-A” value is recorded as 1.2 (0.2) × 10^10 M^−1 and the “selectivity for T-A relative to A-T” value came out at 3 fold.
